In PubChem BioAssay (NCI):
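In this assay, cells in 96-well plates receive the compound at five concentrations for 48 hours. Endpoints are linearly interpolated between the surrounding concentrations. GI50 = concentration required for 50% inhibition of growth. The concentration for full growth arrest is given as TGI.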

Key:
Experiment in all cases: growth of human tumour cells (NCI), 48 h
[1] = test system: 786-0 renal
[2] = test system: A498 renal
[3] = test system: A549 NSCLC
[4] = test system: KM12 colon
[5] = test system: LOX IMVI melanoma
[6] = test system: MOLT-4 leukemia
[7] = test system: NCI-H522 lung
[8] = test system: NCI/ADR-RES ovarian
[9] = test system: SF-268 CNS
[10] = test system: SF-539 CNS

## CCCCOC(=O)c1ccc(NC(=O)CCl)cc1
[1]
  GI50: 2.04 µM
  TGI: 3.74 µM
[2]
  GI50: 14.1 µM
  TGI: 28.6 µM
[3]
  GI50: 10.2 µM
  TGI: 22.8 µM
[4]
  GI50: 2.07 µM
  TGI: 4.52 µM
[5]
  GI50: 1.03 µM
  TGI: 2.35 µM
[6]
  GI50: 1.82 µM
  TGI: 6.21 µM
[7]
  GI50: 1.74 µM
  TGI: 3.57 µM
[8]
  GI50: 2.79 µM
  TGI: 8.84 µM
[9]
  GI50: 1.78 µM
  TGI: 4.05 µM
[10]
  GI50: 1.7 µM
  TGI: 3.18 µM

## CCOc1ccc2nc(-c3cccc(OCC(=O)NC(C)C)c3)nc(Nc3ccc(-c4cn[nH]c4)cc3)c2c1
[1]
  GI50: 0.553 µM
  TGI: 2.63 µM
[2]
  GI50: 2.54 µM
  TGI: 9.85 µM
[3]
  GI50: 0.769 µM
  TGI: 3.54 µM
[4]
  GI50: 0.527 µM
  TGI: 6.9 µM
[5]
  GI50: 0.491 µM
  TGI: 2.33 µM
[6]
  GI50: 0.319 µM
  TGI: > 31.9 µM
[7]
  GI50: 0.62 µM
  TGI: 3.33 µM
[8]
  GI50: 1.92 µM
  TGI: 22.9 µM
[9]
  GI50: 1.35 µM
  TGI: 7 µM
[10]
  GI50: 1.25 µM
  TGI: 2.67 µM

## O=CC(Br)C(Br)c1ccccc1 (configuration not stated)
[1]
  GI50: 2.5 µM
  TGI: 6.46 µM
[2]
  GI50: 13.9 µM
  TGI: 29.5 µM
[3]
  GI50: 21.1 µM
  TGI: 49.9 µM
[4]
  GI50: 12.6 µM
  TGI: 26 µM
[5]
  GI50: 0.665 µM
  TGI: 1.83 µM
[6]
  GI50: 0.904 µM
  TGI: 3.89 µM
[7]
  GI50: 1.72 µM
  TGI: 3.56 µM
[8]
  GI50: 4.77 µM
  TGI: 27.7 µM
[9]
  GI50: 4.2 µM
  TGI: 16 µM
[10]
  GI50: 1.87 µM
  TGI: 4.36 µM

## CSc1n(Cc2ccc3ccccc3c2)c(C)c[n+]1Cc1ccc2ccccc2c1
[1]
  GI50: 1.53 µM
  TGI: 2.97 µM
[2]
  GI50: 1.13 µM
  TGI: 2.93 µM
[3]
  GI50: 1.28 µM
  TGI: 2.73 µM
[4]
  GI50: 0.593 µM
  TGI: 1.96 µM
[5]
  GI50: 0.591 µM
  TGI: 1.9 µM
[6]
  GI50: 1.11 µM
  TGI: 3.01 µM
[7]
  GI50: 0.311 µM
  TGI: 1.3 µM
[8]
  GI50: 12.8 µM
  TGI: 31.3 µM
[9]
  GI50: 0.69 µM
  TGI: 2.13 µM
[10]
  GI50: 0.797 µM
  TGI: 2.12 µM

## CC(C)N1CCC2(CC1)NNc1ncccc1-n1cccc12
[1]
  TGI: > 100 µM
[3]
  TGI: > 100 µM
[4]
  TGI: > 100 µM
[5]
  TGI: > 100 µM
[6]
  TGI: > 100 µM
[7]
  TGI: > 100 µM
[9]
  TGI: > 100 µM
[10]
  TGI: > 100 µM

## COc1ccc2c3c(c4ccccc4cc13)C(=O)N(CCN(C)CCN)C2=O
[1]
  GI50: 0.0388 µM
  TGI: 0.7 µM
[2]
  GI50: 0.393 µM
  TGI: 1.73 µM
[3]
  GI50: 0.0113 µM
  TGI: 0.243 µM
[4]
  GI50: 0.171 µM
  TGI: 1.28 µM
[5]
  GI50: 0.0446 µM
  TGI: 0.381 µM
[6]
  TGI: 0.301 µM
[7]
  GI50: 0.0742 µM
  TGI: 1.23 µM
[8]
  GI50: 0.116 µM
  TGI: 1.65 µM
[9]
  GI50: 0.106 µM
  TGI: 1.49 µM
[10]
  GI50: 0.186 µM
  TGI: 1.35 µM
